What was measured:
Type in all cases: in vivo, rat
colonic pain threshold = test: Colonic pain threshold in normal rats (colonic distension); conditions: control animals
Protocol: (§1) Male Sprague-Dawley rats weighing 340 to 400 g were used in the study. The animals were housed three per cage in a regulated environment (20±1° C., 50±5% humidity, with light 8:00 AM to 8:00 PM). Under anethesia (ketamine 80 mg/kg i.p.; acepromazin 12 mg/kg i.p.), TNBS (50 mg/kg), or saline (1.5 mL/kg) was injected into the proximal colon (1 cm from the cecum). After the surgery, animals were individually housed in the regulated environment.
(§2) A balloon catheter (5-6 cm length) was inserted through the anus into the colon and kept in position (tip of balloon 5 cm from the anus) by taping the catheter to the base of the tail. The balloon was progressively inflated by step of 5 mm Hg, from 0 to 75 mm Hg, each step of inflation lasting 30 seconds. Each cycle of colonic distension was controlled by a standard barostat. The threshold corresponds to the pressure which produced the first abdominal contraction, at which time the cycle of distension was discontinued. To determine the colonic threshold, four cycles of distension were performed on the same animal.

[1] = system: TNBS-induced colonic allodynia; test: TNBS-induced chronic colonic allodynia in rats, colonic distension threshold; conditions: for Colonic Threshold: TNBS rats
Protocol: GABA analogs were evaluated in rats suffering from chronic visceral allodynia induced by trinitrobenzene sulfonic acid (TNBS). […] In humans, digestive disorders are often associated with visceral pain. In these pathologies, the visceral pain threshold is decreased, indicating a visceral hypersensitivity. Consequently, the following study was designed to evaluate the effect of injection of TNBS into the colon on visceral pain threshold in an experimental model of colonic distension.
as §1, §2
In a third series, a group of eight rats treated with TNBS received a subcutaneous (sc) injection of gabapentin or CI-1008 30 minutes prior to initiation of the colonic distension cycle.
All test compounds were dissolved in saline except TNBS. TNBS was dissolved in EtOH 30% (w/v). Subcutaneous injection of vehicle was given in a volume of […].
Statistical significance between each group was determined using a one-way ANOVA followed by Student's unpaired t-test. Differences were considered statistically significant at p<0.05.
(§3) Pain threshold (pressure of distension inducing the first abdominal contraction) after distal colonic distension was determined at Day 7 in two groups of awake rats: control animals and TNBS-treated animals. […] Inflammatory parameters (colon weight, area of hyperemia and necrosis and colonic myeloperoxidase content) were measured in the proximal colon at Day 7 after TNBS treatment.

[2] = system: rectal distension-induced abdominal contractions; test: Abdominal response induced by rectal distension in rats (basal)
Protocol: Male Wistar rats weighing 250 to 350 g were surgically prepared for electromyography, according to a standard technique. Rats were anesthetized by i.p. injection of acepromazine and ketamine (Imalgene 1000, Rhöne-Mérieux, Lyon, France) at doses of 0.6 and 120 mg/kg, respectively. […] Electrodes were exteriorized on the back of the neck and protected by a glass tube attached to the skin. Animals were individually housed in polypropylene cages and kept in a temperature-controlled room (21° C.). They were allowed free access to water and food (UAR pellets, Epinay, France).
(§4) Electromyographic recording began 5 days after surgery. The electrical activity of abdominal striated muscles was recorded with an electroencephalograph machine (Mini VIII, Alvar, Paris, France) using a short-time constant (0.03 sec) to remove low-frequency signals (<3 Hz) and a paper speed of 3.6 cm/minute.
Rats were placed in plastic tunnels (6 cm diameter; 25 cm length) where they could not move, escape or turn around, in order to prevent damage to the balloon. They are accustomized to this procedure for 3 or 4 days before rectal distension (RD) in order to minimize stress reaction during experiments. […] The balloon used for distension was an arterial embolectomy catheter (Fogarty, Edwards Laboratories, Inc., Santa Ana, USA). Rectal distension (RD) was performed by insertion of the balloon (2-mm diameter; 2-cm long) in the rectum, at 1 cm of the anus, the catheter being fixed at the tail. It was inflated progressively by steps of 0.4 mL, from 0 to 1.6 mL, each step of inflation lasting 5 minutes. To detect possible leakage, the volume of water introduced in the balloon was checked by complete removal with a syringe at the end of the distension period. […]
(§5) Statistical analysis of the number of abdominal contractions occurring during each 5-minute period during RD was performed by one-way ANOVA followed by Student's paired t-test. Values were expressed as the mean±SEM, and differences were considered significant for p<0.05.

[3] = system: lipopolysaccharide-induced delayed rectal allodynia; test: LPS-colonic hypersensitivity assay (LPS-induced delayed rectal allodynia); conditions: 30 mg/kg 30 minutes prior to rectal distension; 12 hours after LPS 1 mg/kg IP; volume 0.4 mL; LPS alone 9.7±1.0, before LPS 3.7±1.0
Excerpt: The GABA analogs also have been evaluated for their ability to control and treat gastrointestinal disorders characterized as IBD and IBS. The assay utilized to evaluate the GABA analogs measures the effects of compound on lipopolysaccharide-induced delayed rectal allodynia in rats. Intraperitoneal (IP) injections of the endotoxin lipopolysaccharide (LPS) are known to induce long-lasting hyperalgesia in somatic pain models. The following assay LPS-colonic hypersensitivity assay was designed to evaluate the effect of IP injections of LPS on pain visceral threshold in an experimental model of rectal distension.
Male Wistar rats weighing 250 to 350 g were surgically prepared for electromyography, according to a standard technique. […]
as §4, with “cm/minute. […]” for “cm/minute.”
as §5

[4] = system: colonic inflammatory effect of TNBS; test: Colonic inflammatory parameters after TNBS in rats; conditions: gabapentin 100-500 mg/kg sc, CI-1008 30-200 mg/kg sc; Day 7 after TNBS
Protocol: as §3
Gabapentin (100, 300, and 500 mg/kg sc) and CI-1008 (30, 60, 100, and 200 mg/kg sc) were administered 30 minutes before colonic distension and measurement of the inflammatory parameters.

[5] = system: cyclooxygenase product prostaglandin E2 (PGE2); test: PGE2 content of gastric mucosa biopsies (ELISA) after indomethacin (Example 3); conditions: any dose tested (1-200 mg/kg oral)
Protocol: Gabapentin or pregabalin (CI-1008) were dissolved in water and administered orally at the following doses: 1, 10, 100, and 200 mg/kg in a volume of 1 mL. Control animals were dosed with an equal volume of vehicle (1 mL of water). Sixty minutes later, all the animals received 1 mL of a solution of indomethacin dissolved in 5% aqueous NaHCO3 (80 mg/kg). Control animals received 1 mL of 5% aqueous NaHCO3 orally. Experimental groups were as follows:
Gastric damage caused by indomethacin correlates with inhibition of the cyclooxygenase product prostaglandin E2 (PGE2). Animals were sacrificed by decapitation 4 hours post-indomethacin administration. The stomach was removed and opened along the greater curvature and its image digitized and stored on an optical disk using a 486-based PC computer equipped with CUE3 system imaging analysis software (Olympus Corp., Marietta, Ga., USA). Two 6-mm biopsies were taken from a constant region of the gastric mucosa located in each side of the glandular portion of the stomach, and their PGE2 content was measured using a commercially available ELISA kit (Assay Designs Inc., Ann Arbor, Mich., USA). The presence of gastric damage was determined using the retrieved electronic image, and the extent of damage was measured using the CUE3 imaging software. Data are expressed as a percent of gastric area damaged and the PGE2 content (pg/mL).

[6] = system: intracolonic formalin-induced pain; test: Formalin-induced inflammatory colonic pain in rats; conditions: gabapentin 100, 300, 500 mg/kg sc; CI-1008 100, 200 mg/kg sc
Protocol: Administration of formalin into the wall of the rat colon causes acute inflammation and visceral pain. The aim of this study was to evaluate the antinociceptive activity of gabapentin and CI-1008 in visceral pain induced by colonic intrapariental injection of formalin.
Adult female Sprague-Dawley rats weighing 240 to 260 g were used in the study. The animals were housed three per cage in a regulated environment (20±1° C., 50±5% humidity, with light 8:00 AM to 8:00 PM) prior to use in the test.
Each test animal was placed in a transparent plastic cage (27×43×28 cm) with a layer of wood shavings on the floor. Drinking water was available. […] The injection site and the zone of diffusion of Evans Blue were recorded by image analysis software. […]
As listed in increasing order of pain intensity, these behaviors were: (i) abdominal licking and nibbling (L), (ii) body stretching, i.e., backward extension of the hind limbs (B), (iii) contraction of the flanks, sometimes evolving to a stretching attitude (C), and (iv) whole body contraction, the rat standing with its back curved, occasionally further graded according to the duration of the given episode: W1 for less than 30 seconds, W2 between 30 seconds and 1 minute, and W3 for more than 1 minute. Behaviors were recorded for each animal throughout the 2-hour test on individual charts. […]

Row | SMILES | colonic pain threshold in normal conditions (colonic pain threshold; 0.3 mg/kg sc) | TNBS-induced decrease in pain threshold after colonic distension ([1]; 0.1 mg/kg sc) | number of cramps on rectal distension ([2]; 10 mg/kg injected 120 minutes before rectal distension, all distension volumes) | number of cramps on rectal distension ([2]; 30 mg/kg injected 120 minutes before rectal distension, all distension volumes) | number of cramps on rectal distension ([2]; 30 mg/kg, distension volumes of 0.4 and 0.8 mL) | number of abdominal contractions [3] | colonic inflammatory effect of TNBS (colon weight, hyperemia, necrosis, myeloperoxidase) [4] | modification of indomethacin inhibition of PGE2 [5] | colonic pain threshold in normal conditions (colonic pain threshold; 200 mg/kg sc) | Colonic Threshold ([1]; 30 mg/kg sc 30 min before distension, TNBS 17.81, Sham 33.44, Control 43.39) [mm Hg] | Colonic Threshold ([1]; 60 mg/kg sc, TNBS 17.81, Control 43.39) [mm Hg] | allodynia induced by TNBS ([1]; 100 mg/kg sc) | inhibition of TNBS-induced colonic allodynia / decrease in pain threshold (dose relation) ([1]; gabapentin 100, 300, 500 mg/kg sc, CI-1008 30, 60, 100, 200 mg/kg sc, 30 minutes before colonic distension) | pain score induced by intracolonic formalin [6]
1 | CN1CC[C@]23c4c5ccc(O)c4O[C@H]2[C@@H](O)C=C[C@H]3[C@H]1C5 [Morphine] | significantly increased the colonic pain threshold | completely suppressed | – | – | – | – | – | – | – | – | – | – | – | –
2 | CC(C)C[C@H](CN)CC(=O)O [CI-1008, (S)-3-(aminomethyl)-5-methylhexanoic acid] | – | – | had a similar effect at all distension volumes | had a similar effect at all distension volumes | reduced the number of cramps | 1.8±0.9 | neither gabapentin nor CI-1008 inhibited the colonic inflammatory effect of TNBS | Neither gabapentin nor CI-1008, at any dose tested, were able to significantly modify this effect | neither gabapentin (500 mg/kg sc) nor CI-1008 (200 mg/kg sc) modified the colonic pain threshold | 21.72 | 25.47 | completely suppressed | dose-related inhibition | significantly and dose-dependently decreased the pain score

— patent publication US6426368B2, “Method for preventing and treating alcoholism” (Warner-Lambert Company, priority 1997, dated 2002)
